Laboratory results reported in patent publication US20030073737A1, “Tolerance induction” (priority 2001, published 2003).

Key:
donor heart graft = assay: Rat heterotopic heart transplantation, graft survival; format: in vivo; details: Lewis/BN rats; i.v. or s.c., daily dose up to 1 mg/kg for 1-12 weeks, e.g. 4 weeks; daily palpation of beating donor heart
Description: 1. Rat Heterotopic Heart Transplantation
The strain combination used: Male Lewis (RT^1 haplotype) and BN (RT^1 haplotype). The animals are anaesthetised using inhalational isofluorane. […] The aorta is ligated and divided distal to the first branch and the brachiocephalic trunk is divided at the first bifurcation. The left pulmonary artery is ligated and divided and the right side divided but left open. All other vessels are dissected free, ligated and divided and the donor heart is removed into iced saline.
The recipient is prepared by dissection and cross-clamping of the infra-renal abdominal aorta and vena cava. The graft is implanted with end-to-side anastomoses, using 10/0 monofilament suture, between the donor brachiocephalic trunk and the recipient aorta and the donor right pulmonary artery to the recipient vena cava. The clamps are removed, the graft tethered retroabdominally, the abdominal contents washed with warm saline and the animal is closed and allowed to recover under a heating lamp. Graft survival is monitored by daily palpation of the beating donor heart through the abdominal wall. Rejection is considered to be complete when heart beat stops.

[1] = system: mixed lymphocyte reaction; details: as described in WO 99/50388; cited from earlier work

## Tautomycetin
Donor heart graft
  graft survival: Increases of graft survival are obtained beyond treatment time
[1]
  inhibition of the mixed lymphocyte reaction: inhibition of the mixed lymphocyte reaction
